# Where two headings read alike, the source gives them in different places.
# Columns and labels:
# [1] = molecular target: T1, cGMP PDE5 (Homo sapiens, UniProt O76074); assay: In vitro cGMP PDE5 inhibitory activity (IC50); format: biochemical
# T1 construct: The required PDE enzymes were isolated from a variety of sources, including human corpus cavernosum, human platelets; from tissue; host or cells: human corpus cavernosum tissue or human platelets
# Experimental: The compounds of the present invention are potent and selective cGMP PDE5 inhibitors. In vitro PDE inhibitory activities against cyclic guanosine 3′,5′-monophosphate (cGMP) and cyclic adenosine 3′,5′-monophosphate (cAMP) phosphodiesterases were determined by measurement of their IC50 values (the concentration of compound required for 50% inhibition of enzyme activity).
# The required PDE enzymes were isolated from a variety of sources, including human corpus cavernosum, human platelets, human cardiac ventricle, human skeletal muscle and human and canine retina, essentially by the method of W. J. Thompson and M. M. Appleman (Biochem., 1971, 10, 311). In particular, the cGMP-specific PDE (PDE5) and the cGMP-inhibited cAMP PDE (PDE3) were obtained from human corpus cavernosum tissue or human platelets; the cGMP-stimulated PDE (PDE2) was obtained from human corpus cavernosum or human platelets; the calcium/calmodulin (Ca/CAM)-dependent PDE (PDE1) from human cardiac ventricle; the cAMP-specific PDE (PDE4) from recombinant clone or human skeletal muscle; and the photoreceptor PDE (PDE6) from canine or human retina. Phosphodiesterases 7-11 were generated from full length human recombinant clones transfected into SF9 cells.
# Assays were performed either using a modification of the “batch” method of W. J. Thompson et al. (Biochem., 1979, 18, 5228) or using a scintillation proximity assay for the direct detection of AMP/GMP using a modification of the protocol described by Amersham pic under product code TRKQ7090/7100. In summary, the effect of PDE inhibitors was investigated by assaying a fixed amount of enzyme in the presence of varying inhibitor concentrations and low substrate, (cGMP or cAMP in a 3:1 ratio unlabelled to [^3H]-labeled at a conc ˜½ Km) such that IC50 ≅Ki. The final assay volume was made up to 102 μl with assay buffer [20 mM Tris-HCl pH 7.4, 5 mM MgCl2, 1 mg/ml bovine serum albumin]. Reactions were initiated with enzyme, incubated for 30-60 min at 30° C. to give <30% substrate turnover and terminated with 50 μl yttrium silicate SPA beads (containing 3 mM of the respective unlabelled cyclic nucleotide for PDEs 3, 9 and 11). Plates were resealed and shaken for 20 min, after which the beads were allowed to settle for 30 min in the dark and then counted on a TopCount plate reader (Packard, Meriden, Conn.). Radioactivity units were converted to % activity of an uninhibited control (100%), plotted against inhibitor concentration and inhibitor IC50 values obtained using the ‘Fit Curve’ Microsoft Excel extension or inhouse equivalent.
# [2] = In vitro metabolism: human liver microsome (HLM) half-life; format: in vitro ADME; settings: human liver microsomes, pH 7.4, human liver microsomes
# Experimental: In vitro metabolism experiments were carried out in the hepatic microsomal fractions from man. Transplant-quality human liver tissue was obtained from the International Institute for the Advancement of Medicine (Exton, Pa., USA). Microsomes were prepared according to the method described in Biochemical Pharmacology, […], 48, 2147-2156 and stored at −80° C. The concentrations of protein and cytochrome P450 were determined by standard methods described in Journal of Biological Chemistry, 1951, 193, 265-275 and Journal of Biological Chemistry, 1964, 239, 2370-2378.
# Microsomal incubations (1.5 ml) were prepared containing 0.5 μM cytochrome P450, 200 mM phosphate buffer (pH 7.4), 0.1 M MgCl2, 0.1 M isocitric acid, 1 unit/ml isocitrate dehydrogenase and 20 mM β-NADP. Compounds under study were added after a 5 min preincubation at 37° C. to give an initial substrate concentration of 1 μM. The mixture was incubated at 37° C. and samples (100 μl) were removed for analysis for up to 60 min. Metabolism in samples was terminated by the addition of NaOH (0.1 M) containing an internal standard (chosen to have similar physicochemical properties to compounds under study), followed by extraction into ethyl acetate (2 ml). The extracts were evaporated to dryness and analysed by LC-MS/MS (Hewlett Packard HP1100 binary pump, Hypersil HS100 C18, 5 cm by 4.6 mm internal diameter, 5 μm column using a mobile phase of 2 mM ammonium acetate in 90:10 methanol/water, aqueous portion adjusted to pH 4 with glacial acetic acid, and a flowrate of 1 ml/min). The mass spectrometer was a Sciex API 2000 with TurbolonSpray interface using a positive ion multiple reaction monitoring (MRM) detection mode. Nitrogen was used as curtain, nebuliser, TurbolonSpray and collision gases, and the TurbolonSpray temperature was 100° C. Typical voltages were as follows: IS=5.2 kV; RNG=380 V; Q0=−10 V; IQ1=−11 V; ST=−15;RO1=−11 V; MU=gain adjusted as per Sciex user manual. Collision energy was 55 eV for high MRM, OR=65 V. Dwell time was 200 msec with a 50 msec pause. Data was acquired using MSExpress v 1.1 and processed using Macquan 1.5 (PE Sciex)). Disappearance rate constants (k) in human microsomal preparations were determined by linear regression of the log ratio (compound under study/internal standard) versus time. The in vitro human microsomal half-lives were determined according to the equation […]=In 2/k.
# [3] = bounds for groups of Examples, read-out: IC50 values for the PDE5 enzyme
# [4] = in vitro cGMP PDE5 inhibitory activity, Table 1, read-out: IC50
# [5] = bound stated, read-out: HLM half-lifes
# [6] = initial substrate concentration 1 μM, 37° C., Table 2, read-out: HLM t1/2
"half-life at 1 μM [2, 6] [min]",Structure (SMILES),melting point [°C],"IC50 [1, 3] [nM]","IC50 [1, 4] [nM]","half-life at 1 μM [2, 5] [min]"
–,"CCCCOc1ccc(S(C)(=O)=O)cc1-c1nc2c(CC)n(C3CN(C(C)C)C3)nc2c(=O)[nH]1 [Example 19, 5-[2-Butoxy-5-(methylsulfonyl)phenyl]-3-ethyl-2-(1-isopropyl-3-azetidinyl)-2,6-dihydro-7H-pyrazolo[4,3-d]pyrimidin-7-one]",209 to 213,< 10,6.6,≥ 30
> 120,"CCCOc1ccc(S(C)(=O)=O)cc1-c1nc2c(CC)n(CC3CC3)nc2c(=O)[nH]1 [Example 12, 2-(Cyclopropylmethyl)-3-ethyl-5-[5-(methylsulfonyl)-2-propoxyphenyl]-2,6-dihydro-7H-pyrazolo[4,3-d]pyrimidin-7-one]",233 to 234,< 10,1,≥ 30
67,"CCCc1nn(C)c2c(=O)[nH]c(-c3cc(S(C)(=O)=O)ccc3OCC)nc12 [Example 1, 5-[2-Ethoxy-5-(methylsulfonyl)phenyl]-1-methyl-3-propyl-1,6-dihydro-7H-pyrazolo[4,3-d]pyrimidin-7-one]",235 to 236,< 10,5.6,≥ 30
–,"CCCOc1ccc(S(C)(=O)=O)cc1-c1nc2c(CC)nn(C[C@@H]3CCCN3C)c2c(=O)[nH]1 [Example 18, 3-Ethyl-1-{[(2S)-1-methylpyrrolidinyl]methyl}-5-[5-(methylsulfonyl)-2-propoxyphenyl]-1,6-dihydro-7H-pyrazolo[4,3-d]pyrimidin-7-one]",211 to 215,< 10,5.4,≥ 30
–,"CCc1c2nc(-c3cc(S(C)(=O)=O)ccc3OCC(C)C)[nH]c(=O)c2nn1C[C@H]1CCCN1C [Example 14, 3-Ethyl-5-[2-isobutoxy-5-(methylsulfonyl)phenyl]-2-{[(2R)-1-methylpyrrolidinyl]methyl}-2,6-dihydro-7H-pyrazolo[4,3-d]pyrimidin-7-one]",178 to 180,< 10,8.3,≥ 30
–,"CCc1c2nc(-c3cc(S(C)(=O)=O)ccc3OCC(C)C)[nH]c(=O)c2nn1Cc1nccn1C [Example 9, 3-Ethyl-5-[2-isobutoxy-5-(methylsulfonyl)phenyl]-2-[(1-methyl-1H-imidazol-2-yl)methyl]-2,6-dihydro-7H-pyrazolo[4,3-d]pyrimidin-7-one]",253 to 254,< 10,3.95,≥ 30
–,"CCCCOc1ccc(S(C)(=O)=O)cc1-c1nc2c(CC)n(CCOC)nc2c(=O)[nH]1 [Example 2, 5-[2-Butoxy-5-(methylsulfonyl)phenyl]-3-ethyl-2-(2-methoxyethyl)-2,6-dihydro-7H-pyrazolo[4,3-d]pyrimidin-7-one]",174 to 176,< 10,6.5,≥ 30
–,"CCCOc1ccc(S(C)(=O)=O)cc1-c1nc2c(CC)nn(Cc3ccccn3)c2c(=O)[nH]1 [Example 11, 3-Ethyl-5-[5-(methylsulfonyl)-2-propoxyphenyl]-1-(2-pyridinylmethyl)-1,6-dihydro-7H-pyrazolo[4,3-d]pyrimidin-7-one]",–,< 10,1.4,≥ 30

# From patent US6770645B2, “Pharmaceutically active compounds” (Pfizer Inc., priority 2001, dated 2004)
